In patent US20030138388A1, “Peptides and the use thereof in darkening the skin” (priority 2001, published 2003):

Assays:
[1] = test system: Dark skinned Yucatan microswine; assay: Induced pigmentation in vivo, F&M-stained histological skin sections scored for pigment deposition; set-up: key: −1: slight lightening; 0: No change; 1: Minimal increase in pigment deposition; 2: Increased pigment deposition; 3: Strong increase in pigment deposition, some increase in caps; 4: Strong increase in pigment deposition, strong increase in caps; conditions: topical twice a day, five days/week, eight or nine weeks, average of all sites of responsive swine
Experimental: Compositions of the present invention were tested for their ability to induce in vivo pigmentation in skin cells in the following experiment. Dark skinned Yucatan microswine (Charles River, Portland, Me.) were housed in appropriately sized cages in an environmentally controlled room with a 12-hour light-12-hour dark photoperiod and supplied with food and water ad libitum. Animal care was based on the “Guide for the Care and Use of Laboratory Animals”, NIH Publication No. 85-23. Twenty μl of test peptides were applied topically, twice a day, five days/week, for eight or nine weeks, on the dorsum of the swine. Treatments of individual swine were always arranged in a head to tail order on one side, and in a tail to head order on the other side of the animal. Biopsies were taken using standard techniques.
Sections from the skin biopsies were stained with Hematoxylin and Eosin (H&E), or with Fontana-Mason (F&M), using standard procedures (Sheenan DC, Hrapckak BB, eds., Theory and Practice of Histo-technology. p. 223, 277, The C. V. Mosby Co., St. Louis (1980)). F&M staining identifies silver nitrate reducing molecules. In skin, this non-specific stain identifies primarily melanin. At least three sections per biopsy were processed. […]
F&M-stained histological skin sections were evaluated for the change in pigment deposition within the treated site. […]

[2] = test system: keratinocyte-melanocyte co-cultures; assay: Induced pigmentation in keratinocyte-melanocyte co-cultures, DOPA staining and computerized image analysis; type: cell-based, Human
Experimental: The peptides Peptide 1 and Peptide 2 and various pigments were tested, alone or in combination, with keratinocyte-melanocyte cultures for their effect on cell pigmentation, using DOPA staining and computerized image analysis. The pigments that were tested were the pigmented natural extract Hedychium spicatum extract sold as Kapur Kachali from Amsar Private Limited (Indore, India), copper chloride from Sigma (St. Louis, Mo.) and the water-soluble melanin derivatives Melasyn-100™ from San-mar laboratories, Inc. (Elmsford, N.Y.) and MelanZe™ from Zylepsis (Ashford, Kent, United Kingdom). The pigments were tested at concentrations ranging from 0.0001%(W/V) to 1%(W/V) and peptides were tested at 50 μM.
The assay was conducted in the following manner. Human HaCaT keratinocytes (Boukamp P., et al., J Cell Biol 106, 3, 761-771 (1988)) were maintained in Dulbecco's Modified Eagle's Medium (DMEM) containing 10% fetal bovine serum (FBS), 4.5 mg/ml glucose, 2 mM L-glutamine, 50 U/ml penicillin and 50 μg/ml streptomycin (Life Technologies, Gaithersburg, Md.). Cells were maintained at <80% confluency in 5% CO2 (v/v) and were used in experimental procedures up to culture passage 15. Human primary melanocytes (Clonetics, San Diego, Calif. or Cascade Biologics, Portland, Oreg.) were maintained according to manufacturer's instructions. To establish keratinocyte-melanocyte co-cultures, 6×10^4 melanocytes were plated in each well of a 24 well plate and maintained according to manufacturer's instructions.
Melanocytes were rinsed three times with melanocyte growth media without PMA and keratinocytes (6×10^4) were plated to establish the co-cultures in this media. Co-cultures were treated for three days with test peptides and pigments, and assayed for cell viability and pigment level on the forth day. Cell viability was assayed using alamarBlue™ (Acumed International, West Lake, Ohio) following manufacturer's instructions. No change in viability was observed following three daily treatments with all tested material. All in vitro experiments were performed in triplicates, and were repeated at least three times.
Following three daily treatments, the co-cultures were briefly fixed (10% buffered formalin from Fisher Scientific, 15 minutes), washed three times with Phosphate-buffered saline (PBS, from Life Technologies) and stained with L-3,4-Dihydroxyphenylalanine (DOPA, from Sigma, St. Louis, Mo.) 0.1% in PBS, for 5 hours at 37° C., followed by two PBS washes and formalin (10%, overnight) fixation. DOPA is a substrate for tyrosinase, therefore an increase in staining represents increased tyrosinase activity and pigment production. DOPA-stained monolayers were used for image analysis. All images were obtained and analyzed with Image Pro Plus 3.0 software (Media Cybernetics, Silver Spring, Md.). Parameters measured were surface area of stained material within melanocyte and keratinocytes and the total surface area of the cells in the culture, and the relative pigmented area was calculated. A value of 100% was assigned to untreated controls, and values of treatment groups were normalized to their relevant controls. In all experiments there was no difference between PBS-treated cells and untreated controls. Data are presented with standard deviation (SigmaPlot® 5.0, SPSS Science, Chicago, Ill.).
Forskolin (Sigma, St. Louis, Mo.), a known inducer of pigmentation, served as a positive control and a reference point. Forskolin was administered at 1% (W/V).

[3] = Table 1, 50 μM, three daily treatments, relative pigmented area after DOPA staining, control 0.184
[4] = Table 1, 50 μM, three daily treatments, versus control

Molecule: H2-Leu-Ile-Gly-Arg-NH2 (H-LIGR-NH2) [Peptide 1]
- Score (pigment deposition) ([1]; peptide at 250 μM or 500 μM): 2
- Mean area [2, 3]: 0.270
- % increase [2, 4]: 46.8%
- % increase ([2]; Table 2, Peptide 1 50 μM, normalized to control): 279%
- Mean area ([2]; Table 2, Peptide 1 50 μM, three daily treatments, control 0.029): 0.080

Molecule: H2-Leu-Ile-Gly-Arg-Leu-NH2 (H-LIGRL-NH2) [Peptide 2]
- Mean area [2, 3]: 0.240
- % increase [2, 4]: 30.8%

Molecule: [Cl][Cu][Cl] [CuCl2, copper chloride, reference compound]
- Mean area ([2]; Table 2, CuCl2 0.001% (w/v), control 0.029): 0.063
- % increase ([2]; Table 2, CuCl2 0.001% (w/v), normalized to control): 220%

Molecule: C=C[C@@]1(C)CC(=O)[C@]2(O)[C@@]3(C)[C@@H](O)CCC(C)(C)[C@@H]3[C@H](O)[C@H](OC(C)=O)[C@@]2(C)O1 [Forskolin, reference compound]
- Score (pigment deposition) ([1]; positive control at 1% (W/V)): 1
- Mean area ([2]; Table 2, Forskolin 1% (w/v), positive control, control 0.029): 0.067
- % increase ([2]; Table 2, Forskolin 1% (w/v), positive control, normalized to control): 231.0%
